The text below walks through data of PMC7002685, “Inhibition of vascular calcification by inositol phosphates derivatized with ethylene glycol oligomers” (Nature Communications, 2020).

The test system of one data set is Glutamate, Kainate. Kind of data set: Off-target 232710. The class given is binding, Rat. The conditions noted are these: 10 µM. The procedure:
(§1) The potential off-target activity of 10 µM (OEG2)2-IP4 was assessed against a panel of 87 enzymes, receptors, or ion channels that are used in standard safety pharmacology screens.
(§2) 3.2. Off-target screening assay
(§3) The experiments were conducted by a contract research organization (Eurofins Panlabs Discovery
(§4) Services Taiwan, Ltd.) and details on the respective assays can be retrieved via the catalog number
(§5) provided in Supplementary Table 11 from the company’s webpage
(§6) (https://www.eurofinsdiscoveryservices.com/). […]

The subject of data set [1] is Glutamate, NMDA, Polyamine. Kind of data set: Off-target 234000. The class given is binding, Rat. To be noted: 10 µM. The procedure:
as §1, §2, §3, §4, §5, §6

A further data set deals with T1, Calcium Channel N-Type (Rattus norvegicus, UniProt Q02294).
T1 construct: purchased Eurofins Panlabs Discovery Services Taiwan, Ltd
The experiment in a line: Off-target 216000. The class given is binding. Here is the method: as §1, §2
(§7) The experiments were conducted by a contract research organization (Eurofins Panlabs Discovery Services Taiwan, Ltd.) and details on the respective assays can be retrieved via the catalog number provided in Supplementary Table 11 from the company’s webpage
as §6
(§8) At sacrifice the left tibia of animals of the rat model with dietary adenine/high-phosphate-induced uremia and VC was collected, fixed with 70% v/v EtOH and embedded in methyl methacrylate. The trabecular bone compartment is known to be the most metabolic active i.e. actively re-structured bone compartment in CKD. Therefore, histomorphometric and micro-computed tomography (µCT) analysis of bone was performed on the trabecular compartment. Tibial sections were Goldner-stained for histomorphometric analysis of the proximal metaphysis using the AxioVision Release 4.5 software, as […]
(§9) described previously5. […]

Data set [2] is described as follows: Protein binding in human plasma (ultrafiltration). The class given is in vitro ADME. Here is the method:
For many drugs, the PK profile depends on the patient’s renal status. Therefore, (OEG2)2-IP4 PK profile was also determined in an adenine and high-phosphate-diet-induced rat model of uremia, in which the compound was administered after serum creatinine levels had increased by fourfold relative to baseline (Fig. 4g, h). […] Similar results were observed following s.c. administration (Supplementary Table 5).
as §2
The experiments were conducted by a contract research organization (Eurofins Panlabs Discovery Services Taiwan, Ltd.) and details on the respective assays can be retrieved via the catalog number provided in Supplementary Table 11 from the company’s webpage […]
Concentrations of unbound (OEG2)2-IP4 in ultrafiltrated fractions and total (OEG2)2-IP4 concentrations were measured using a calibration prepared in ultrafiltrated pooled plasma and non-ultrafiltrated pooled plasma, respectively and LC-MS/MS quantification as described in Methods 6.3.
At sacrifice the left tibia of animals of the rat model with dietary adenine/high-phosphate-induced uremia and VC was collected, fixed with 70% v/v EtOH and embedded in methyl methacrylate. […] The total bone area (as percentage of total tissue area), osteoid area (as percentage of total bone area), and mineralized bone area (as percentage of total tissue area) were calculated from the primary measurements. […]

The target in another data set is T2, α2B (Homo sapiens, UniProt P18089).
T2 construct: purchased Eurofins Panlabs Discovery Services Taiwan, Ltd
Kind of data set: Off-target 203710. The class given is binding. The procedure: as §1, §2, §3, §4, §5, §6

Data set [3] concerns the target T3, Platelet Activating Factor (PAF) (Homo sapiens, UniProt P25105).
T3 construct: purchased Eurofins Panlabs Discovery Services Taiwan, Ltd
Kind of data set: Off-target 265010. It is filed as binding. The procedure:
as §1, §2, §3, §4, §5, §6

In a further data set the test system is serum CPP. The experiment in a line: CPP calcium, CPP2 hydrodynamic diameter and T50 in rat sera at sacrifice. It is filed as in vivo, male Wistar rats. The conditions noted are these: 5, 15, 50 mg/kg/day. The procedure: The inhibitory effect of (OEG2)2-IP4 on heart calcifications was significant starting at 15 mg/kg/day (Fig. 6b). The compound’s activity was also evident following von Kossa staining (Fig. 6c) on the thoracic part of the aorta, and quantification of the von Kossa-positive area (Fig. 6d). […] In the femoral artery, reduction in bulk calcium was insignificant for all tested groups, likely due to the low level of calcification detected in the vehicle control (Fig. 6f, Supplementary Table 9).
DLS analysis of CPPs induced in serum samples collected from in vivo adenine-induced VC studies and stored at −20 °C was performed as described for human serum samples and CPP hydrodynamic diameter development was monitored by hourly DLS measurements.
The first group was treated with vehicle (double distilled (d.d.) water), the second, third, and fourth groups were treated with daily doses equivalent of 5, 15, and 50 mg/kg of (OEG2)2-IP4, respectively, in 2 mL d.d. water starting 1 week after the administration of the adenine diet. […] Serum samples were analyzed for creatinine according to the Jaffe method, calcium (using flame atomic absorption spectrometry[74]), and phosphate (DiaSys Diagnostic Systems, Holzheim, Germany) concentrations. […] In addition, serum aliquots were centrifuged (10,000 × g, 4 °C, 30 min) and T50’s were determined as described above. […]

The target in another data set is T4, Melanocortin MC1 (Homo sapiens, UniProt Q01726).
T4 construct: purchased Eurofins Panlabs Discovery Services Taiwan, Ltd
The experiment in a line: Off-target 251100 (MC1). The class given is binding. Here is the method:
as §1, §2, §7, §6, §8, §9

A further data set addresses T5, Dopamine D2S (Homo sapiens, UniProt P14416).
T5 construct: purchased Eurofins Panlabs Discovery Services Taiwan, Ltd
The experiment in a line: Off-target 219700. It is filed as binding. The procedure: as §1, §2, §7, §6, §8, §9

The target in another data set is T6, hERG potassium channel (Homo sapiens, UniProt Q12809).
T6 construct: purchased Eurofins Panlabs Discovery Services Taiwan, Ltd
The experiment in a line: Off-target 265900. The class given is binding. Here is the method: as §1, §2, §7, §6, §8, §9

Another data set addresses T7, Tachykinin NK1 (Homo sapiens, UniProt P25103).
T7 construct: purchased Eurofins Panlabs Discovery Services Taiwan, Ltd
The experiment in a line: Off-target 255520. It is filed as binding. The procedure: as §1, §2, §7, §6, §8, §9

The next data set relates to Phosphodiesterase PDE4. The experiment in a line: Off-target 154000. The class given is biochemical, Human. To be noted: 10 µM. Here is the method: as §1, §2, §7, §6, §8, §9
Data set [4] deals with T8, (Rattus norvegicus, UniProt P15823).
T8 construct: purchased Eurofins Panlabs Discovery Services Taiwan, Ltd
Kind of data set: Off-target 203200. The class given is binding. Here is the method:
as §1, §2, §7, §6, §8, §9

A word on the % Inhibition: it is the relative decrease from the control value, in per cent. Read a high % Inhibition as strong suppression. What is called inhibition is the change of the read-out against control, counted positive when it falls.

T5 sequence (P14416 1-414 isoform P14416-2): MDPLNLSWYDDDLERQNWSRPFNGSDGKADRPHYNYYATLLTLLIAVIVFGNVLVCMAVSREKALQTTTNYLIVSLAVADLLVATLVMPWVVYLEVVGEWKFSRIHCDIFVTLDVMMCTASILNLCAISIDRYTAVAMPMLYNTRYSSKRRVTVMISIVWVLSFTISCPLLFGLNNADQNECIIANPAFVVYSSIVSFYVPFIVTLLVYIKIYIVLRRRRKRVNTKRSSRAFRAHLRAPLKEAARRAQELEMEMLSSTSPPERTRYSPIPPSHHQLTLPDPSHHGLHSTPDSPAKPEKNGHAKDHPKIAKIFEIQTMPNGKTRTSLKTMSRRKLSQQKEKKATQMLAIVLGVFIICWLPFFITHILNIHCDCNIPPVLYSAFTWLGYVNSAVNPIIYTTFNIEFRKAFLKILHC
T3 sequence (P25105 whole entry): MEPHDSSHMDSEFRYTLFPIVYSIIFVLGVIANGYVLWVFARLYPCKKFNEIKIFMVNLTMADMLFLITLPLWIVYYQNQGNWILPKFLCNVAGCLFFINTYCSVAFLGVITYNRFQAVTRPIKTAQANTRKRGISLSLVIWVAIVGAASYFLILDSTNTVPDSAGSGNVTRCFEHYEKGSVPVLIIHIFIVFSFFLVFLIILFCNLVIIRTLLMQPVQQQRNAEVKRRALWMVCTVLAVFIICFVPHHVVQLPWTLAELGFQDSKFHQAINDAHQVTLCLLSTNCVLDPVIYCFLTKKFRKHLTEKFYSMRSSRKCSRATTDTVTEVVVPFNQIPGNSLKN
T6 sequence (Q12809 whole entry): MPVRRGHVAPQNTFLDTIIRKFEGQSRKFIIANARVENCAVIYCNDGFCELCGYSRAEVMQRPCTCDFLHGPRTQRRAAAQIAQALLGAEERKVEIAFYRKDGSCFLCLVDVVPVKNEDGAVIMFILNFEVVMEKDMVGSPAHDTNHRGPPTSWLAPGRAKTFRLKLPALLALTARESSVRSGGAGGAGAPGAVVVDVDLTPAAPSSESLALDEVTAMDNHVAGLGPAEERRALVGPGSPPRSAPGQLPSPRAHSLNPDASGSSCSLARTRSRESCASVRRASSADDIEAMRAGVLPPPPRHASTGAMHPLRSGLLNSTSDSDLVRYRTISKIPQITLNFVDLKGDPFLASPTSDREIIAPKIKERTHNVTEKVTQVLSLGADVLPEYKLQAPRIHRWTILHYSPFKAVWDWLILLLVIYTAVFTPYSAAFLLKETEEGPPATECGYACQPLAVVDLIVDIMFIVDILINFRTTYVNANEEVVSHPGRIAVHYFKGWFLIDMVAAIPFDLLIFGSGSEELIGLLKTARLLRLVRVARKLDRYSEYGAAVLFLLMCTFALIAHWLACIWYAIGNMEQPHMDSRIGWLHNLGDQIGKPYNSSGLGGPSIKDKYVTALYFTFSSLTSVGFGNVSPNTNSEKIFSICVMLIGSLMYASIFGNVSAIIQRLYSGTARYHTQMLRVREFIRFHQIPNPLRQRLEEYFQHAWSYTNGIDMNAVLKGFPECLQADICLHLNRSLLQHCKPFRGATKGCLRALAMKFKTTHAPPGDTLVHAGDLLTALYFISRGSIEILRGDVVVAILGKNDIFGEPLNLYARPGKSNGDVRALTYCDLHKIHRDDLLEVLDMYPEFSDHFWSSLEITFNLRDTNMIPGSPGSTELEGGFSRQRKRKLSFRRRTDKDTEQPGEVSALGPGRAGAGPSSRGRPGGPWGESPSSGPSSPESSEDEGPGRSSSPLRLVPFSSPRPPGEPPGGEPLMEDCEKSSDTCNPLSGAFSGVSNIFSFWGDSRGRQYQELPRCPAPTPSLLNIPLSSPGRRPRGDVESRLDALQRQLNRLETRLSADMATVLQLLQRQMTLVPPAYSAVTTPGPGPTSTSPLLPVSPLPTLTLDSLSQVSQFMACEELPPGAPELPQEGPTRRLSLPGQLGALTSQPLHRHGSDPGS
T4 sequence (Q01726 whole entry): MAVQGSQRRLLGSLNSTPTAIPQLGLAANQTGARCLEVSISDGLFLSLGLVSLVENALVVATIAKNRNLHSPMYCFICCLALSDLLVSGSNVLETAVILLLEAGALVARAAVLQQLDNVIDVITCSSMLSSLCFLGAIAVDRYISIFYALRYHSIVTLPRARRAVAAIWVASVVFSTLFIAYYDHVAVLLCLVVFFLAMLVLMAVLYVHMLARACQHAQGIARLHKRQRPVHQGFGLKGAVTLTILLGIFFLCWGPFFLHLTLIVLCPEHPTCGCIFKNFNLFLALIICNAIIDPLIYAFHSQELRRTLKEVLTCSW
T8 sequence (P15823 whole entry): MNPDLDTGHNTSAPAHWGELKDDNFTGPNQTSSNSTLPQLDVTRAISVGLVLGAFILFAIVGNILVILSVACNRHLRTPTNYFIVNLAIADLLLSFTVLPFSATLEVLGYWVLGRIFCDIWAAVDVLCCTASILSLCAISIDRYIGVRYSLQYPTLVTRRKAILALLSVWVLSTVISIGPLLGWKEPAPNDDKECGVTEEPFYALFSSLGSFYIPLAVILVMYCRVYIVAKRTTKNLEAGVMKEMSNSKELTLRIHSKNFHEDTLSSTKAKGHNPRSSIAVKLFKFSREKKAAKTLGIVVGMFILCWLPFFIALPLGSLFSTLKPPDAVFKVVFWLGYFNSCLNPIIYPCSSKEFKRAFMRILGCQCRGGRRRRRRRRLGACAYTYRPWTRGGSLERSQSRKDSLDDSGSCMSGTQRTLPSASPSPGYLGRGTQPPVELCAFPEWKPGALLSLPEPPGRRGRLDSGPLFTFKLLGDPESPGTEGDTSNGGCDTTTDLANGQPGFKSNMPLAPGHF
T2 sequence (P18089 whole entry): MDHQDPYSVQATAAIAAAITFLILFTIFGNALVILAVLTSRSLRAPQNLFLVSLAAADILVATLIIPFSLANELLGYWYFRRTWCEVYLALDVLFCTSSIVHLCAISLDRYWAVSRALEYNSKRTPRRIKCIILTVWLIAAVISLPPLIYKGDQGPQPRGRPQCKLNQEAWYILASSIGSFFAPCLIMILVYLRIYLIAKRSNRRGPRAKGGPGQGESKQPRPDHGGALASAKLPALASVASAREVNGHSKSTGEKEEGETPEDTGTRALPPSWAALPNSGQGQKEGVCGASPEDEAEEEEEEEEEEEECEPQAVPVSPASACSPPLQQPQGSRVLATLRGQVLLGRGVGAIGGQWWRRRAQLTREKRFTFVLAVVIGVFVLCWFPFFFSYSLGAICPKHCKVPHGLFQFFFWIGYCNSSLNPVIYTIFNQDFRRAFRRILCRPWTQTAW
T7 sequence (P25103 whole entry): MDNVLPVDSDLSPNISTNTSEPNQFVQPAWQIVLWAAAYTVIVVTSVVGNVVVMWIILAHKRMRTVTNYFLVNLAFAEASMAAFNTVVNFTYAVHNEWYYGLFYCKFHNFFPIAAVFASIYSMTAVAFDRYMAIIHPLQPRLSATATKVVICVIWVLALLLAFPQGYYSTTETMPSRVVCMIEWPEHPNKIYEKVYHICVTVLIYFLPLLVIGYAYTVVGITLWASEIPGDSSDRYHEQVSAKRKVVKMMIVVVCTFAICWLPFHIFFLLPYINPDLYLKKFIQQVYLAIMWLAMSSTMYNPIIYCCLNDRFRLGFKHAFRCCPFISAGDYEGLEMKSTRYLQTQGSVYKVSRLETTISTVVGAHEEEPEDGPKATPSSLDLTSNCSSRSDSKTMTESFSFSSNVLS

Take `COCCOCCO[C@@H]1[C@@H](OP(=O)(O)O)[C@H](OCCOCCOC)[C@@H](OP(=O)(O)O)[C@@H](OP(=O)(O)O)[C@H]1OP(=O)(O)O` [(OEG2)2-IP4, 4,6-Di-O-(methoxy-diethyleneglycol)-myo-inositol-1,2,3,5-tetrakis(phosphate)]: the “% Inhibition” value was 17% in the data set with Glutamate, Kainate; 17% in [1]; 12% in the data set with Phosphodiesterase PDE4. Besides, the inhibition at 10 µM was 5% on Calcium Channel N-Type; 3% against α2B; -7% in data set [3]; 9% against Melanocortin MC1; 7% at Dopamine D2S; 11% on hERG potassium channel. For the same compound, the inhibition at 10 µM on Tachykinin NK1 is -14%; in data set [4], 5%. The “protein-bound fraction in healthy human plasma” value is given as 58% in data set [2] (total measured concentration 2.8 µg/mL (4 µM)) and 42% in data set [2] (total measured concentration 27.5 µg/mL (39.5 µM)). In the data set with serum CPP, the “serum CPP calcium content, CPP2 hydrodynamic diameter and T50 in sera at sacrifice” value is listed as “did not differ between treatment groups”.
